In patent publication EP4745137A1 (Gluetacs Therapeutics (Shanghai) Co., Ltd., priority 2023, dated 2025):

Tests used:
Assay type in all cases: cell-based
Settings in all cases: 24 hours of compound treatment, 50 nM and 500 nM tested (concentration behind the class not stated)
WEE1 = target: T1, WEE1 (Homo sapiens, UniProt P30291+Q96SW2); test: Western-blot assay of substrate protein degradation in hPBMCs, WEE1
T1 construct: endogenous in cells; host or cells: hPBMCs (Milecell Biotechnologies)

IKZF1 = target: T2, IKZF1 (Homo sapiens, UniProt Q13422+Q96SW2); test: Western-blot assay of substrate protein degradation in hPBMCs, IKZF1
T2 construct: endogenous in cells; host or cells: hPBMCs (Milecell Biotechnologies)
T2 sequence (Q13422 whole entry): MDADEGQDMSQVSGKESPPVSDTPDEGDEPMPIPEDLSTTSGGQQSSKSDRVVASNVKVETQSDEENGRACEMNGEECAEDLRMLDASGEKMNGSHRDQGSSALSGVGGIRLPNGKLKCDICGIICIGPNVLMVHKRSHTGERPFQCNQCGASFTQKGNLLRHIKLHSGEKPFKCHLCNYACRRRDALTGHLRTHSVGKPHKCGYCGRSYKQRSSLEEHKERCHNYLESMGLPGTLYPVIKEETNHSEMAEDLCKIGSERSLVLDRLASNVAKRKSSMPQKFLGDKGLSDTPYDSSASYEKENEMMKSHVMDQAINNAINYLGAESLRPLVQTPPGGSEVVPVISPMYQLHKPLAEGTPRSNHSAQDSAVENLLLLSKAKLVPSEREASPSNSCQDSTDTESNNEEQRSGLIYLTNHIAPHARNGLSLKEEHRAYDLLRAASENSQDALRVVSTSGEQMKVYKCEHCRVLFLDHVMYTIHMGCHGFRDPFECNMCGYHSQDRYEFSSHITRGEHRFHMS
T2 sequence (Q96SW2 whole entry): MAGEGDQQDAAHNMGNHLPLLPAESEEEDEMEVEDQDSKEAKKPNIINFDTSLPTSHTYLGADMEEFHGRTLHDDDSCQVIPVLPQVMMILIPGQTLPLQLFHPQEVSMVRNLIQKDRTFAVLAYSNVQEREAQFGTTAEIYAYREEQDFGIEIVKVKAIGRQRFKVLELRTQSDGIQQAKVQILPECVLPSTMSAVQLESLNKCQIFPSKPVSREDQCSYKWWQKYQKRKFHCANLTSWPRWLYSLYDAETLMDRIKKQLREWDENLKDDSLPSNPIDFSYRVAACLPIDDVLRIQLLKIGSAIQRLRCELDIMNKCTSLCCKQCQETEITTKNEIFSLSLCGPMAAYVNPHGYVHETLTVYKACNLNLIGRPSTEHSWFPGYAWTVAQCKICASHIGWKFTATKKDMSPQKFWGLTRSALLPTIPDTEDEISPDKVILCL
T2 sequence (Q16531 whole entry partner): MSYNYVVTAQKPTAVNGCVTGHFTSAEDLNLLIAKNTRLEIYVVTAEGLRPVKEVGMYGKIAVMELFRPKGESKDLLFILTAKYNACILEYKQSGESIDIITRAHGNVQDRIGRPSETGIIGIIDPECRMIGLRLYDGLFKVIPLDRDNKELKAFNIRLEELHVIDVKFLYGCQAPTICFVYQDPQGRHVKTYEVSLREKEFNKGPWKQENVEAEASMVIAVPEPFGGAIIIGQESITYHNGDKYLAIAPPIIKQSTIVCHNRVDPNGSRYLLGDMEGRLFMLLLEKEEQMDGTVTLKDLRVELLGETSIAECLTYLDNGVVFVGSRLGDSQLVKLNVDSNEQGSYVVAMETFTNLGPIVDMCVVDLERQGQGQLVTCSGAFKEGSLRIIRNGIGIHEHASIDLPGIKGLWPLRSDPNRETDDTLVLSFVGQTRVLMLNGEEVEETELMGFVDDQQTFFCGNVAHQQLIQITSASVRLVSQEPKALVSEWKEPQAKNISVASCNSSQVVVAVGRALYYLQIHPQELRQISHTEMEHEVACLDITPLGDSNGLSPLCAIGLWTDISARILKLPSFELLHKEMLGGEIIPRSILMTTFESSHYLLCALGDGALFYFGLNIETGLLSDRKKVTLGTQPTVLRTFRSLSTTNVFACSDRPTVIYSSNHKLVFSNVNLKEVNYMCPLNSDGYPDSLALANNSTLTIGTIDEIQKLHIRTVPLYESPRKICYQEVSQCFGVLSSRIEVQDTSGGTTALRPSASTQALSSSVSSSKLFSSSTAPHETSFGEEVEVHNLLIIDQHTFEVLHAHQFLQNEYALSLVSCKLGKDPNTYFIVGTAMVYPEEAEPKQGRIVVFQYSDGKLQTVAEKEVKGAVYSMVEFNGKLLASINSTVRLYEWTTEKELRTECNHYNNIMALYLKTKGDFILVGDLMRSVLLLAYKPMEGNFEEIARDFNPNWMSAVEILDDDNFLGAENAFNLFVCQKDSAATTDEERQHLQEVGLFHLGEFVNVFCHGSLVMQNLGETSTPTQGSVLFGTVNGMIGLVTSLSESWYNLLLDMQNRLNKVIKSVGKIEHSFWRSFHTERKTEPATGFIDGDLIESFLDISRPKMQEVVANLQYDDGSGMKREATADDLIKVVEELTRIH

IKZF2 = target: T3, IKZF2 (Homo sapiens, UniProt Q96SW2+Q9UKS7); test: Western-blot assay of substrate protein degradation in hPBMCs, IKZF2
T3 construct: endogenous in cells; host or cells: hPBMCs (Milecell Biotechnologies)
T3 sequence (Q9UKS7 whole entry): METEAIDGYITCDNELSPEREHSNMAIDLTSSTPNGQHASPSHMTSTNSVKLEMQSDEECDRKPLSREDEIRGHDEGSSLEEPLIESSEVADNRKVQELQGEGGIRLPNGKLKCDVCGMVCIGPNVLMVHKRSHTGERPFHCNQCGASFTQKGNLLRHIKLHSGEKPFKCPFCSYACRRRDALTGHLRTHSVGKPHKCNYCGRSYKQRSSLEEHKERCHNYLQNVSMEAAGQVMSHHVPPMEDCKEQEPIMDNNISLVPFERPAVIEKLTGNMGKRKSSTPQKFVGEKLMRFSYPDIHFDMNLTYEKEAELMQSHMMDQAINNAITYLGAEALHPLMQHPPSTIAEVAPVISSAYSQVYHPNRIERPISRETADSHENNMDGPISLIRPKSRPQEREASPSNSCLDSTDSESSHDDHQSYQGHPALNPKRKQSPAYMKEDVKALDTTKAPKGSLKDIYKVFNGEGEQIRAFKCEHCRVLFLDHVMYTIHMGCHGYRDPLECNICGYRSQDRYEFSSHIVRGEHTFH
T3 sequence (Q96SW2 whole entry): as the sequence (Q96SW2 whole entry) above
T3 sequence (Q16531 whole entry partner): as the sequence (Q16531 whole entry partner) above

IKZF3 = target: T4, IKZF3 (Homo sapiens, UniProt Q96SW2+Q9UKT9); test: Western-blot assay of substrate protein degradation in hPBMCs, IKZF3
T4 construct: endogenous in cells; host or cells: hPBMCs (Milecell Biotechnologies)

CK1α = target: T5, CK1α (Homo sapiens, UniProt P48729+Q96SW2); test: Western-blot assay of substrate protein degradation in hPBMCs, CK1α
T5 construct: endogenous in cells; host or cells: hPBMCs (Milecell Biotechnologies)
T5 sequence (P48729 whole entry): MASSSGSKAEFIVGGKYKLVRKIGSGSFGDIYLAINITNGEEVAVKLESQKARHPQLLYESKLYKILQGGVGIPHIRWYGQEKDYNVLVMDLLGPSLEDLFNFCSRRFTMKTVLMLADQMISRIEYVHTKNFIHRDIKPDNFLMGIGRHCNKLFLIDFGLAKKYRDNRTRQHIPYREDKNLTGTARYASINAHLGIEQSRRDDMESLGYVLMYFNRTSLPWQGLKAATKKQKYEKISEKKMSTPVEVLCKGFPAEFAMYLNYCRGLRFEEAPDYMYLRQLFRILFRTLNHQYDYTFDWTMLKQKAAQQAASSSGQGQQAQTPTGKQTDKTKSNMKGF
T5 sequence (Q96SW2 whole entry): as the sequence (Q96SW2 whole entry) above
T5 sequence (Q16531 whole entry partner): as the sequence (Q16531 whole entry partner) above

GSPT1 = target: T6, GSPT1 (Homo sapiens, UniProt P15170+Q96SW2); test: Western-blot assay of substrate protein degradation in hPBMCs, GSPT1
T6 construct: endogenous in cells; host or cells: hPBMCs (Milecell Biotechnologies)
T6 sequence (P15170 whole entry): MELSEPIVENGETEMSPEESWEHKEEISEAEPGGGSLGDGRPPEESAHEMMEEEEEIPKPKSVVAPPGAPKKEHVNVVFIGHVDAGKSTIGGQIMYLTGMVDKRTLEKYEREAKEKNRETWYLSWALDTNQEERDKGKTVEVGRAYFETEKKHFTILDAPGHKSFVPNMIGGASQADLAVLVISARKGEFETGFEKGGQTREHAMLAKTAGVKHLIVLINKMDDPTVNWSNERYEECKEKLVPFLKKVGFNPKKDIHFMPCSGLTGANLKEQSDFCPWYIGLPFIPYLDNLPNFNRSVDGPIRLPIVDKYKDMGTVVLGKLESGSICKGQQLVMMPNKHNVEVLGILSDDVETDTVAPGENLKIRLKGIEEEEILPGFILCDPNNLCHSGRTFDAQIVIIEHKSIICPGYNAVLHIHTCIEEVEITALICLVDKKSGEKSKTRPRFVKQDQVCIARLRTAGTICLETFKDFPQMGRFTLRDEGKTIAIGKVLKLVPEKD
T6 sequence (Q96SW2 whole entry): as the sequence (Q96SW2 whole entry) above
T6 sequence (Q16531 whole entry partner): as the sequence (Q16531 whole entry partner) above

T1 sequence (P30291 whole entry): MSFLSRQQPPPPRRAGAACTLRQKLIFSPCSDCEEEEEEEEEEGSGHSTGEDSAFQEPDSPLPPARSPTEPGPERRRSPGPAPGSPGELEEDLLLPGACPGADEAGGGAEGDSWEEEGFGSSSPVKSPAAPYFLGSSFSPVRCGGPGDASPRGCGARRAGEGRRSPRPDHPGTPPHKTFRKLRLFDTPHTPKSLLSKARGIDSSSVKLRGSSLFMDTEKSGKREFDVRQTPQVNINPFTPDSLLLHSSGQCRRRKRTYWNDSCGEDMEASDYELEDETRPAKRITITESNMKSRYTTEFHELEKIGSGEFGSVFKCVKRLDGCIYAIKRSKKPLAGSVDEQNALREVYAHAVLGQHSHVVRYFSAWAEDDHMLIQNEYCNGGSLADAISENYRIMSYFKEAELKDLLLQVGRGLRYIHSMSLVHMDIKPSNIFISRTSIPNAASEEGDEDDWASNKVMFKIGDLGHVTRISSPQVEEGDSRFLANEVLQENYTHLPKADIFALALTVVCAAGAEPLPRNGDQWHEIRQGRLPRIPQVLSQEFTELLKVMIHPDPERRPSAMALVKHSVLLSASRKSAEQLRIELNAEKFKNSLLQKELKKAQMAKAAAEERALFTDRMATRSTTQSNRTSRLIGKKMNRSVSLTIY
T1 sequence (Q96SW2 whole entry): as the sequence (Q96SW2 whole entry) above
T1 sequence (Q16531 whole entry partner): as the sequence (Q16531 whole entry partner) above

SMILES	Weel substrate protein remaining % (WEE1)	IKZF 1 substrate protein remaining % (IKZF1)	IKZF2 substrate protein remaining % (IKZF2)	IKZF3 substrate protein remaining % (IKZF3)	CK1a substrate protein remaining % (CK1α)	GSPT1 substrate protein remaining % (GSPT1)
O=C1CCC(N2C(=O)c3ccc(CN4CCC(c5ccccc5Cl)CC4)cc3C2=O)C(=O)N1 (stereo not drawn) [GT-06371, 5-((4-(2-chlorophenyl)piperidin-1-yl)methyl)-2-(2,6-dioxopiperidin-3-yl)isoindoline-1,3-dione]	B (80%< substrate protein remaining %≤ 100%)	A (0% ≤ substrate protein remaining % ≤ 80%)	B (80%< substrate protein remaining %≤ 100%)	B (80%< substrate protein remaining %≤ 100%)	B (80%< substrate protein remaining %≤ 100%)	A (0% ≤ substrate protein remaining % ≤ 80%)
O=C1CCC(N2C(=O)c3ccc(CN4CCC(c5ccc(Cl)cc5)CC4)cc3C2=O)C(=O)N1 (stereo not drawn) [GT-06372, 5-((4-(4-chlorophenyl)piperidin-1-yl)methyl)-2-(2,6-dioxopiperidin-3-yl)isoindoline-1,3-dione]	A (0% ≤ substrate protein remaining % ≤ 80%)	A (0% ≤ substrate protein remaining % ≤ 80%)	A (0% ≤ substrate protein remaining % ≤ 80%)	B (80%< substrate protein remaining %≤ 100%)	B (80%< substrate protein remaining %≤ 100%)	A (0% ≤ substrate protein remaining % ≤ 80%)
O=C1CCC(N2C(=O)c3ccc(CN4CCC(c5ccccc5F)CC4)cc3C2=O)C(=O)N1 (stereo not drawn) [GT-06373, 2-(2,6-dioxopiperidin-3-yl)-5-((4-(2-fluorophenyl)piperidin-1-yl)methyl)isoindoline-1,3-dione]	A (0% ≤ substrate protein remaining % ≤ 80%)	A (0% ≤ substrate protein remaining % ≤ 80%)	A (0% ≤ substrate protein remaining % ≤ 80%)	B (80%< substrate protein remaining %≤ 100%)	B (80%< substrate protein remaining %≤ 100%)	A (0% ≤ substrate protein remaining % ≤ 80%)
O=C1CCC(N2C(=O)c3ccc(CN4CCC(c5ccc(F)cc5)CC4)cc3C2=O)C(=O)N1 (stereo not drawn) [GT-06374, 2-(2,6-dioxopiperidin-3-yl)-5-((4-(4-fluorophenyl)piperidin-1-yl)methyl)isoindoline-1,3-dione]	A (0% ≤ substrate protein remaining % ≤ 80%)	A (0% ≤ substrate protein remaining % ≤ 80%)	A (0% ≤ substrate protein remaining % ≤ 80%)	B (80%< substrate protein remaining %≤ 100%)	B (80%< substrate protein remaining %≤ 100%)	A (0% ≤ substrate protein remaining % ≤ 80%)
O=C1CCC(N2C(=O)c3ccc(CN4CCC(c5ccccc5C(F)(F)F)CC4)cc3C2=O)C(=O)N1 (stereo not drawn) [GT-06375, 2-(2,6-dioxopiperidin-3-yl)-5-((4-(2-(trifluoromethyl)phenyl)piperidin-1-yl)methyl)isoindoline-1,3-dione]	A (0% ≤ substrate protein remaining % ≤ 80%)	A (0% ≤ substrate protein remaining % ≤ 80%)	A (0% ≤ substrate protein remaining % ≤ 80%)	B (80%< substrate protein remaining %≤ 100%)	B (80%< substrate protein remaining %≤ 100%)	A (0% ≤ substrate protein remaining % ≤ 80%)
O=C1CCC(N2C(=O)c3ccc(CN4CC=C(c5cccc(F)c5Cl)CC4)cc3C2=O)C(=O)N1 (stereo not drawn) [GT-06429, 5-((4-(2-chloro-3-fluorophenyl)-3,6-dihydropyridin-1(2H)-yl)methyl)-2-(2,6-dioxopiperidin-3-yl)isoindoline-1,3-dione]	A (0% ≤ substrate protein remaining % ≤ 80%)	A (0% ≤ substrate protein remaining % ≤ 80%)	A (0% ≤ substrate protein remaining % ≤ 80%)	A (0% ≤ substrate protein remaining % ≤ 80%)	A (0% ≤ substrate protein remaining % ≤ 80%)	A (0% ≤ substrate protein remaining % ≤ 80%)
O=C1CCC(N2C(=O)c3ccc(CN4CCN(c5ccccn5)CC4)cc3C2=O)C(=O)N1 (stereo not drawn) [GT-06521, 2-(2,6-dioxopiperidin-3-yl)-5-((4-(pyridin-2-yl)piperazin-1-yl)methyl)isoindoline-1,3-dione]	B (80%< substrate protein remaining %≤ 100%)	B (80%< substrate protein remaining %≤ 100%)	B (80%< substrate protein remaining %≤ 100%)	B (80%< substrate protein remaining %≤ 100%)	B (80%< substrate protein remaining %≤ 100%)	A (0% ≤ substrate protein remaining % ≤ 80%)
Cc1cccc(N2CCN(Cc3ccc4c(c3)C(=O)N(C3CCC(=O)NC3=O)C4=O)CC2)n1 (stereo not drawn) [GT-06522, 2-(2,6-dioxopiperidin-3-yl)-5-((4-(6-methylpyridin-2-yl)piperazin-1-yl)methyl)isoindoline-1,3-dione]	B (80%< substrate protein remaining %≤ 100%)	B (80%< substrate protein remaining %≤ 100%)	B (80%< substrate protein remaining %≤ 100%)	B (80%< substrate protein remaining %≤ 100%)	B (80%< substrate protein remaining %≤ 100%)	A (0% ≤ substrate protein remaining % ≤ 80%)
O=C1CCC(N2C(=O)c3ccc(CN4CCN(c5cccc(Cl)n5)CC4)cc3C2=O)C(=O)N1 (stereo not drawn) [GT-06523, 5-((4-(6-chloropyridin-2-yl)piperazin-1-yl)methyl)-2-(2,6-dioxopiperidin-3-yl)isoindoline-1,3-dione]	B (80%< substrate protein remaining %≤ 100%)	A (0% ≤ substrate protein remaining % ≤ 80%)	B (80%< substrate protein remaining %≤ 100%)	B (80%< substrate protein remaining %≤ 100%)	B (80%< substrate protein remaining %≤ 100%)	A (0% ≤ substrate protein remaining % ≤ 80%)
O=C1CCC(N2C(=O)c3ccc(CN4CCN(c5ccc(Cl)cn5)CC4)cc3C2=O)C(=O)N1 (stereo not drawn) [GT-06524, 5-((4-(5-chloropyridin-2-yl)piperazin-1-yl)methyl)-2-(2,6-dioxopiperidin-3-yl)isoindoline-1,3-dione]	B (80%< substrate protein remaining %≤ 100%)	A (0% ≤ substrate protein remaining % ≤ 80%)	B (80%< substrate protein remaining %≤ 100%)	B (80%< substrate protein remaining %≤ 100%)	B (80%< substrate protein remaining %≤ 100%)	A (0% ≤ substrate protein remaining % ≤ 80%)
O=C1CCC(N2C(=O)c3ccc(CN4CCN(c5cc(Cl)ccn5)CC4)cc3C2=O)C(=O)N1 (stereo not drawn) [GT-06525, 5-((4-(4-chloropyridin-2-yl)piperazin-1-yl)methyl)-2-(2,6-dioxopiperidin-3-yl)isoindoline-1,3-dione]	A (0% ≤ substrate protein remaining % ≤ 80%)	B (80%< substrate protein remaining %≤ 100%)	A (0% ≤ substrate protein remaining % ≤ 80%)	A (0% ≤ substrate protein remaining % ≤ 80%)	B (80%< substrate protein remaining %≤ 100%)	A (0% ≤ substrate protein remaining % ≤ 80%)
O=C1CCC(N2C(=O)c3ccc(CN4CCN(c5ncccc5F)CC4)cc3C2=O)C(=O)N1 (stereo not drawn) [GT-06526, 2-(2,6-dioxopiperidin-3-yl)-5-((4-(3-fluoropyridin-2-yl)piperazin-1-yl)methyl)isoindoline-1,3-dione]	A (0% ≤ substrate protein remaining % ≤ 80%)	B (80%< substrate protein remaining %≤ 100%)	A (0% ≤ substrate protein remaining % ≤ 80%)	A (0% ≤ substrate protein remaining % ≤ 80%)	B (80%< substrate protein remaining %≤ 100%)	A (0% ≤ substrate protein remaining % ≤ 80%)
O=C1CCC(N2C(=O)c3ccc(CN4CCN(c5cccc(F)n5)CC4)cc3C2=O)C(=O)N1 (stereo not drawn) [GT-06527, 2-(2,6-dioxopiperidin-3-yl)-5-((4-(6-fluoropyridin-2-yl)piperazin-1-yl)methyl)isoindoline-1,3-dione]	A (0% ≤ substrate protein remaining % ≤ 80%)	B (80%< substrate protein remaining %≤ 100%)	A (0% ≤ substrate protein remaining % ≤ 80%)	A (0% ≤ substrate protein remaining % ≤ 80%)	B (80%< substrate protein remaining %≤ 100%)	A (0% ≤ substrate protein remaining % ≤ 80%)
